Molecules are shown by their SMILES.

The target in one assay is human NAMPT (Homo sapiens (Human), UniProt P43490). In words: Human recombinant enzyme assay (NMN fluorescence biochemical assay). The note with it: 6 nM human NAMPT, 60 min; for AC1.4 Human: concentration of compound that generates 40% higher activity over basal; for EC50: concentration that gives half-maximal activation. Summed up: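 Recombinant human NAMPT (6 nM) with 2.5 mM ATP, […] PRPP and […] nicotinamide in HEPES pH 7.2 with DTT, CHAPS, NaCl, MgCl2; 60 min at ambient temperature. NMN derivatised with acetophenone/KOH/formic acid, fluorescence read at 355/460 nm. AC1.4 (40% above basal) and EC50 reported.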

The next assay deals with endogenous NAMPT (Homo sapiens (Human), UniProt P43490). In words: Cellular NAD+ modulation assay in SH-SY5Y cells with doxorubicin. Type of assay: cell-based. Conditions: Neuroblastoma SH-SY5Y cells, 40 hours, cellular NAD levels; for EC50: read-out: SY5Y (human) NAD Cell Dox EC50. As for the experimental part: The compounds described herein were also assayed for their ability to stimulate the endogenous NAMPT in a native cellular environment in the cellular NAD+ modulation assay, which measures the ability of the compound to modulate cellular NAD levels. Increased levels of NAD are expected by compounds that permeate the cells and activate the catalytic activity of the endogenous NAMPT.
Neuroblastoma SH-SY5Y cells were grown in 1:1 mixture of Eagle's Minimum Essential Medium and F12 Medium, along with 10% fetal bovine serum, in a humidified incubator with an atmosphere of 95% air and 5% CO2 at 37° C. The assays were initiated by plating 20 μL of SH-SY5Y cells in culture medium with 0.1% fetal bovine serum, at a density of 5000 cells per well to a 384-well Corning™ BioCoat™ Poly-D-Lysine Multiwell Plates. The plates were incubated in the 37° C. incubators for a period of 5 hours. Compounds in DMSO were added to the plates in a volume of 120 nL using the Labcyte Echo Liquid Handlers. 5 μL of a 1.5 uM Doxorubicin solution in assay medium is added to each well. The plates are then incubated for 40 hours. 30 μL of a readout-solution containing 0.2 U/mL Diaphorase enzyme, 40 uM resazurin, 10 uM FMN, 0.8 U/mL Alcohol dehydrogenase, 3% ethanol, 0.4 mg/mL bovine serum albumin, 0.2% Triton X-100 in 100 mM Tris-HCl, 30 mM EDTA, pH 8.4. The plates were read for fluorescence (Excitation/Emission=540 nm/590 nm) using an EnVision plate reader after 60 mins of incubation at ambient temperature.

Sequence of human NAMPT (P43490 whole entry): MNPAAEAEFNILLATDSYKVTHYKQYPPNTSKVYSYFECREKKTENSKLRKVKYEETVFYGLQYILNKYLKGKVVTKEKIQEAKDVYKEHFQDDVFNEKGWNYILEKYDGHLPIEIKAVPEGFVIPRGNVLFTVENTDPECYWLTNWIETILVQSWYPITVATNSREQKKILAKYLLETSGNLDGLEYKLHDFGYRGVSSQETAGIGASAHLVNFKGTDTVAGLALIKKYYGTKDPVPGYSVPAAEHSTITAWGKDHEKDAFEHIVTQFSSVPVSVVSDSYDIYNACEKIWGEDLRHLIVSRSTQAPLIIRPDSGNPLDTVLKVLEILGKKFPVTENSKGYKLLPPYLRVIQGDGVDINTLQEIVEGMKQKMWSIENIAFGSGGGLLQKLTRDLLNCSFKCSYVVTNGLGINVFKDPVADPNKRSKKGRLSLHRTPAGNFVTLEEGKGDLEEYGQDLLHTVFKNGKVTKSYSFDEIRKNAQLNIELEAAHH
Sequence of endogenous NAMPT (P43490 whole entry): as above

By EC50 is commonly meant the concentration needed to bring the measured effect to its halfway point. `Cc1nc(C(=O)N2CCC[C@@H]2c2cccc(Cl)c2)nc(NCCc2cn[nH]c2)c1C` [Compound 13, (R)-(4-((2-(1H-pyrazol-4-yl)ethyl)amino)-5,6-dimethylpyrimidin-2-yl)(2-(3-chlorophenyl)pyrrolidin-1-yl)methanone]: at human NAMPT, the “AC1.4 Human” value was determined as 0.035 µM and the EC50 was determined as 3.74 µM. Moreover, at endogenous NAMPT, the “SY5Y (human) NAD Cell Dox AC0.3” value was 0.24 µM and the EC50 is 0.23 µM.

Turning to `Cc1nc(C(=O)NC(c2cccc(F)c2)c2nccn2C)nc(NCCc2cn[nH]c2)c1C` (stereo not drawn) [Compound 20, 4-((2-(1H-pyrazol-4-yl)ethyl)amino)-N-((3-fluorophenyl)(1-methyl-1H-imidazol-2-yl)methyl)-5,6-dimethylpyrimidine-2-carboxamide], at human NAMPT, the “AC1.4 Human” value amounted to 0.062 µM and the EC50 came to 0.848 µM. Also, at endogenous NAMPT, the “SY5Y (human) NAD Cell Dox AC0.3” value amounted to 2.97 µM and the EC50 is 8.79 µM.

In the case of `Cc1nc(C(=O)N(C)C(c2cccc(F)c2)c2nccn2C)nc(NCCc2cn[nH]c2)c1C` (stereo not drawn) [Compound 5, 4-((2-(1H-pyrazol-4-yl)ethyl)amino)-N-((3-flurophenyl)(1-methyl-1H-imidazol-2-yl)methyl)-N,5,6-trimethylpyrimidine-2-carboxamide], on human NAMPT, the “AC1.4 Human” value stood at 0.0235 µM and the EC50 came out at 0.449 µM. Also, at endogenous NAMPT, the “SY5Y (human) NAD Cell Dox AC0.3” value worked out at 2.68 µM and the EC50 came to 1.76 µM.

For `Cc1nc(C(=O)N2CC(O)(c3ccccc3)C2)nc(NCCc2cn[nH]c2)c1C` [Compound 22, (4-((2-(1H-pyrazol-4-yl)ethyl)amino)-5,6-dimethylpyrimidin-2-yl)(3-hydroxy-3-phenylazetidin-1-yl)methanone], on human NAMPT, the “AC1.4 Human” value came to 1.956 µM and the EC50 was 12.8 µM. In addition, on endogenous NAMPT, the “SY5Y (human) NAD Cell Dox AC0.3” value is 7.15 µM and the EC50 was found to be 8.84 µM.

Consider `Cc1nc(C(=O)N2CCNCC2c2cccc(F)c2)nc(NCCc2cn[nH]c2)c1C` (stereo not drawn) [Compound 24, (4-((2-(1H-pyrazol-4-yl)ethyl)amino)-5,6-dimethylpyrimidin-2-yl)(2-(3-fluorophenyl)piperazin-1-yl)methanone], for which, at human NAMPT, the “AC1.4 Human” value was found to be 0.0955 µM and the EC50 amounted to 0.77 µM. Further, at endogenous NAMPT, the “SY5Y (human) NAD Cell Dox AC0.3” value was determined as 2.49 µM and the EC50 was 2.26 µM.

For `Cc1nc(C(=O)NC(c2cccc(F)c2)c2ncco2)nc(NCCc2cn[nH]c2)c1C` (stereo not drawn) [Compound 23, 4-((2-(1H-pyrazol-4-yl)ethyl)amino)-N-((3-fluorophenyl)(oxazol-2-yl)methyl)-5,6-dimethylpyrimidine-2-carboxamide], at human NAMPT, the “AC1.4 Human” value stood at 0.0955 µM and the EC50 came out at 3.24 µM. Further, on endogenous NAMPT, the “SY5Y (human) NAD Cell Dox AC0.3” value came to 1.57 µM and the EC50 turned out to be 3.25 µM.

For `Cc1nc(C(=O)N[C@H](C)c2ccccc2)nc(NCCc2cn[nH]c2)c1C` [Compound 17, (R)-4-((2-(1H-pyrazol-4-yl)ethyl)amino)-5,6-dimethyl-N-(1-phenylethyl)pyrimidine-2-carboxamide], at human NAMPT, the “AC1.4 Human” value came out at 0.0715 µM and the EC50 was found to be 0.549 µM. Besides, on endogenous NAMPT, the “SY5Y (human) NAD Cell Dox AC0.3” value came out at 0.24 µM and the EC50 was determined as 0.44 µM.

For the molecule `Cc1nc(C(=O)N[C@H](C)c2cccc(F)n2)nc(NCCc2cn[nH]c2)c1Cl` [Compound 147, (R)-4-((2-(1H-pyrazol-4-yl)ethyl)amino)-5-chloro-N-(1-(6-fluoropyridin-2-yl)ethyl)-6-methylpyrimidine-2-carboxamide], the “AC1.4 Human” value at human NAMPT is <0.003 µM. The “SY5Y (human) NAD Cell Dox AC0.3” value on endogenous NAMPT was found to be 0.02 µM.

For the molecule `Cc1nc(C(=O)NCC(C)(C)c2cccc(F)c2)nc(NCCc2cn[nH]c2)c1C` [Compound 27, 4-((2-(1H-pyrazol-4-yl)ethyl)amino)-N-(2-(3-fluorophenyl)-2-methylpropyl)-5,6-dimethylpyrimidine-2-carboxamide], at human NAMPT, the “AC1.4 Human” value was found to be 0.1305 µM and the EC50 was determined as 1.63 µM. For the same molecule, on endogenous NAMPT, the “SY5Y (human) NAD Cell Dox AC0.3” value turned out to be 0.28 µM and the EC50 amounted to 0.74 µM.

For the molecule `Cc1nc(C(=O)N[C@H](C)c2cccs2)nc(NCCc2cn[nH]c2)c1C` [Compound 14, (R)-4-((2-(1H-pyrazol-4-yl)ethyl)amino)-5,6-dimethyl-N-(1-(thiophen-2-yl)ethyl)pyrimidine-2-carboxamide], at human NAMPT, the “AC1.4 Human” value was found to be 0.054 µM and the EC50 was determined as 0.156 µM. On endogenous NAMPT, the “SY5Y (human) NAD Cell Dox AC0.3” value stood at 0.28 µM and the EC50 came to 0.48 µM.

With `Cc1nc(C(=O)N[C@H](C)c2cccc(F)n2)nc(NCCc2cn[nH]c2)c1C` [Compound 4, (R)-4-((2-(1H-pyrazol-4-yl)ethyl)amino)-N-(1-(6-fluoropyridin-2-yl)ethyl)-5,6-dimethylpyrimidine-2-carboxamide], on human NAMPT, the “AC1.4 Human” value stood at 0.02 µM and the EC50 was determined as 0.105 µM. Besides, at endogenous NAMPT, the “SY5Y (human) NAD Cell Dox AC0.3” value stood at 0.07 µM and the half-maximal effective concentration (EC50) is 0.11 µM.

As to `Cc1nc(C(=O)N2CCC[C@@H]2c2cccc(F)c2)nc(NCCc2cn[nH]c2)c1C` [Compound 15, (R)-(4-((2-(1H-pyrazol-4-yl)ethyl)amino)-5,6-dimethylpyrimidin-2-yl)(2-(3-fluorophenyl)pyrrolidin-1-yl)methanone], on human NAMPT, the “AC1.4 Human” value was 0.051 µM and the EC50 worked out at 0.39 µM. Moreover, on endogenous NAMPT, the “SY5Y (human) NAD Cell Dox AC0.3” value is 0.26 µM and the EC50 amounted to 0.19 µM.

On to `Cc1nc(C(=O)N2CCOC[C@H]2c2ccccc2)nc(NCCc2cn[nH]c2)c1C` [Compound 16, (R)-(4-((2-(1H-pyrazol-4-yl)ethyl)amino)-5,6-dimethylpyrimidin-2-yl)(3-phenylmorpholino)methanone], for which, at human NAMPT, the “AC1.4 Human” value was determined as 0.0585 µM and the EC50 worked out at 0.621 µM. Also, on endogenous NAMPT, the “SY5Y (human) NAD Cell Dox AC0.3” value is 0.41 µM and the EC50 amounted to 0.33 µM.

For `Cc1nc(C(=O)N[C@H](C)c2ncccc2Cl)nc(NCCc2cn[nH]c2)c1C` [Compound 30, (R)-4-((2-(1H-pyrazol-4-yl)ethyl)amino)-N-(1-(3-chloropyridin-2-yl)ethyl)-5,6-dimethylpyrimidine-2-carboxamide], on human NAMPT, the “AC1.4 Human” value came to 0.1725 µM and the EC50 amounted to 0.741 µM. On endogenous NAMPT, the “SY5Y (human) NAD Cell Dox AC0.3” value came out at 0.88 µM and the EC50 stood at 1.6 µM.

Consider `Cc1nc(C(=O)N[C@H](C)c2cccc(F)n2)nc(NCCc2cn[nH]c2)c1F` [Compound 149, (R)-4-((2-(1H-pyrazol-4-yl)ethyl)amino)-5-fluoro-N-(1-(6-fluoropyridin-2-yl)ethyl)-6-methylpyrimidine-2-carboxamide], for which the “AC1.4 Human” value at human NAMPT was 0.02 µM. Moreover, the “SY5Y (human) NAD Cell Dox AC0.3” value on endogenous NAMPT was found to be 0.01 µM.

For the molecule `Cc1nc(C(=O)N[C@@H](C)c2cccc(F)c2)nc(NCCc2cn[nH]c2)c1C` [Compound 10, (S)-4-((2-(1H-pyrazol-4-yl)ethyl)amino)-N-(1-(3-fluorophenyl)ethyl)-5,6-dimethylpyrimidine-2-carboxamide], on human NAMPT, the “AC1.4 Human” value stood at 0.046 µM and the EC50 worked out at 0.52 µM. Further, at endogenous NAMPT, the “SY5Y (human) NAD Cell Dox AC0.3” value was determined as 0.2 µM and the EC50 was 0.47 µM.
